The values below come from US12559725B2, “Formulation comprising extracellular vesicles, method for producing the same, and uses thereof” (MacKay Memorial Hospital, priority 2018, dated 2026).

In one assay the test system is U937 myeloid cells. Description: Reactive oxygen species in PMA-stimulated U937 myeloid cells (DCFH flow cytometry). Format: cell-based. Conditions: EVs 0.15 mg/ml, curcumin 0.8 mM, 30 minutes, vs medium only. How it is done: The U937 myeloid cells were seeded in 24-well plate at a density of 8×10^4 cells/well (in 0.4 ml) followed by the stimulation of 100 nM PMA (phorbol myristate acetate) at 37° C., 5% CO2 incubator for 48 hours. The cells were washed with PBS twice before adding medium with and without ucMSC-naive-EVs (0.15 mg/ml), curcumin (Cur, 0.8 mM) or EV-curcumin (Cur/EVs, 0.8 mM) for 30 minutes. The reactions were incubated with DCFH ([…]) at 1 uM for 20 minutes before flow cytometric analysis of H2O2-mediated fluorescence at 480 nm emission.

In assay [1] the test system is cisplatin-induced hearing loss. Description: Cisplatin-induced hearing loss mouse model (ABR, organ of Corti explants). Format: in vivo, C57BL/6 mice. Conditions: intraperitoneal 0.1 ml day 1 to day 5; ABR threshold at 12 kHz, 10 days post-treatment. How it is done:
In a mouse model of hearing loss, the inner cell damage was induced by administering to C57BL/6 mice 4 mg/kg cisplatin daily for 5 consecutive days, in which the mice were intraperitoneally treated with 0.1 ml PBS (serving as the negative control group), 0.1 ml ucMSC-naive-EVs or 0.1 ml EV-curcumin (about 120 ug protein of EVs, 2.2×10^11 to 2.8×10^11 vesicles) from day 1 to day 5. The protecting effect of ucMSC-naive-EVs and EV-curcumin was assessed by analyzing the cell number and function of the inner ear cells. To assess the protecting effect of the present EV formulation on hearing loss and inner ear cell death, auditory brain response (ABR) threshold at 12 kHz and immunofluorescence images of organ of Corti explants were measured 10 days post-treatment. To obtain the ucMSC-EVs preparations with and without curcumin incorporation enough for the animal study requiring a larger amount of EVs for daily intraperitoneal injection, the ucMSC-EVs in paired formulations with and without curcumin incorporation were prepared and stored at −80° C. for at least 3 months. To make sure homogeneous application of ucMSC-EV to each mouse, different batches of EVs were thawed and mixed for the experiment right before the animal study. One-way ANOVA with Duncan post hoc test was performed when compared with the control or cisplatin group.

Assay [2] has as its system mouse model of anti-aging. Description: D-galactose aging mouse model, Morris water maze. Format: in vivo, BALB/c mice. As to conditions: D-galactose 6 weeks, then intraperitoneal three times a week for 3 weeks. Here is the method:
In a mouse model of anti-aging, BALB/c mice were subcutaneously treated with 100 mg/kg D-galactose every day for 6 consecutive weeks. Then, the mice were intraperitoneally administered with 0.1 ml PBS (serving as the negative control group), 0.1 ml curcumin (1 μM), 0.1 ml ucMSC-naive-EVs, 0.1 ml EV-curcumin (about 120 ug protein of EVs, 2.2×10^11 vesicles), or 5 mg/kg β-lapachone three times a week for 3 weeks after 6 weeks of aging induction and the pre-test of cognition assessment. The anti-aging effect of ucMSC-naive-EVs and EV-curcumin was then assessed by the cognition ability in Morris water maze model.

On to `COc1cc(/C=C/C(=O)CC(=O)/C=C/c2ccc(O)c(OC)c2)ccc1O` [curcumin], for which, in the assay with U937 myeloid cells, the “production of reactive oxygen species (H2O2-mediated fluorescence)” value is given as “significantly decreased the production of reactive oxygen species”. Also, in assay [1], the “cisplatin-induced hearing loss (ABR)” value is “not curcumin alone”. The “time to reach the safety island (escape latency), Morris water maze” value in assay [2] is given as “obviously reduced the time to reach the safety island”.
Consider `CC1(C)CCC2=C(O1)c1ccccc1C(=O)C2=O` [β-lapachone], for which, in assay [2], the “time to reach the safety island (escape latency), Morris water maze” value is on record as “obviously reduced the time to reach the safety island”.
